We go through 5 compounds from PMC8850444, “The lipid components of high-density lipoproteins (HDL) are essential for the binding and transportation of antimicrobial peptides in human serum” (Scientific Reports, 2022).

Where only a bound is given, the exact number is not on record here.

The subject of data set [1] is HDL. In words: Band shift of AMPs by HDL on horizontal native PAGE. It is filed as binding, human. The following applies: AMP 4 µg, agents 10 µg or lipids 4 µg in BSA, 8% horizontal native PAGE. As for the experimental part: (§1) Various AMPs (4 µg each) were incubated with human serum, isolated components or lipid at the indicated concentrations at room temperature in 10 µl PC buffer (20 mM HEPES, pH7.4, 50 mM NaCl) for 30 min, subjected to horizontal native 8% polyacrylamide gel electrophoreses (PAGE), pH8.0/pH8.8, and stained with Coomassie Blue.

For data set [2], the system named is human serum. As to the kind of experiment: Band shift of AMPs in human serum on horizontal native PAGE. Format: binding. The following applies: AMP 4 µg in 10 µl diluted human serum, 5–40% (v/v), 8% horizontal native PAGE, Coomassie blue. As for the experimental part:
as §1

Data set [3] deals with Escherichia coli K-12 (MG1655). It is filed as cell-based. The settings on record: for repression of antimicrobial activity by human serum: E. coli 10^6 cfu/ml, 5% human serum (v/v) compared with PBS, mean ± SD n = 3. As for the experimental part: The Gram-negative bacteria Escherichia coli K-12 (MG1655) was cultured and plated in/on Luria–Bertani broth/agar plate (Merck Millipore, Darmstadt, Germany). The bacteria were grown overnight, washed, and diluted 1:2000 in phosphate buffered saline (PBS), pH 7.4. Bacteria (ca. 1 × 10^6 colony-forming units, cfu/ml) was mixed with antimicrobial peptides (AMP) in 100 µl PBS and incubated at 37 °C. Serial dilutions of each AMP-treated bacteria in the presence of human sera, proteins or lipids were prepared and plated for determination of remaining viable cells (expressed as cfu). At least three independent experiments were performed for each assay to determine the mean value with standard deviation (SD)[31].
For all in vitro antimicrobial assays, the average value with standard deviation (SD) was determined from at least three independent experiments. Mann–Whitney test and Kruskal–Wallis tests were performed to determine the significance. For lipid quantification, the average value with standard deviation (SD) was determined from at least three independent experiments and One-way ANOVA test was performed to determine the significance of the difference in the measured values. P < 0.05 was considered to be statistically significant.

Data set [4] concerns human albumin. The following applies: cited from earlier work.

For the compound “Pleurocidin: antimicrobial peptide from Pleuronectes amertcanus (GWGSFFKKAAHVGKHVGKAALTHYL)”, in data set [1], the “band shift by purified S50, E5, Apo-AI, PC, SM, CO and HDL” value is given as “resistant”. The “band shift of AMP in human serum” value in data set [2] is on record as “not shifted”. Besides, the “repression of antimicrobial activity by human serum” value in data set [3] is recorded as “not at all observed”. The “fold increase of LC99 in 5% human serum over PBS” value in data set [3] (E. coli, LC99 in 5% human serum versus PBS) is listed as “one”. Also, the “bactericidal activity in presence of purified S50, E5, Apo-AI, PC, SM, CO and HDL” value in data set [3] (E. coli, NRC12 16 mg/L, Pleurocidin 8 mg/L) is “resistant”.

Turning to Polymyxin B, the “band shift of AMP in human serum” value in data set [2] is reported as “not shifted”. In addition, the “repression of antimicrobial activity by human serum” value in data set [3] was “not at all observed”.

For daptomycin, in data set [4] (human serum), the “fraction bound and inhibited by albumin” value was 90–94%.

`CC(=O)CC(c1ccccc1)c1c(O)c2ccccc2oc1=O` (centres unmarked) [warfarin]: the “fraction bound to human albumin” value in data set [4] (human albumin drug binding site I (warfarin) and site II (ibuprofen)) is “more than 90%”.

In the case of `CC[C@H](C)[C@H](NC(=O)[C@H](CCCCN)NC(=O)[C@H](CCC(=O)O)NC(=O)[C@H](CCCCN)NC(=O)[C@H](CO)NC(=O)[C@H](CCCCN)NC(=O)[C@H](CCCNC(=N)N)NC(=O)[C@H](Cc1ccccc1)NC(=O)[C@H](Cc1ccccc1)NC(=O)[C@H](CC(=O)O)NC(=O)CNC(=O)[C@H](CC(C)C)NC(=O)[C@@H](N)CC(C)C)C(=O)NCC(=O)N[C@@H](CCCCN)C(=O)N[C@@H](CCC(=O)O)C(=O)N[C@@H](Cc1ccccc1)C(=O)N[C@@H](CCCCN)C(=O)N[C@@H](CCCNC(=N)N)C(=O)N[C@H](C(=O)N[C@H](C(=O)N[C@@H](CCC(N)=O)C(=O)N[C@@H](CCCNC(=N)N)C(=O)N[C@H](C(=O)N[C@@H](CCCCN)C(=O)N[C@@H](CC(=O)O)C(=O)N[C@@H](Cc1ccccc1)C(=O)N[C@@H](CC(C)C)C(=O)N[C@@H](CCCNC(=N)N)C(=O)N[C@@H](CC(N)=O)C(=O)N[C@@H](CC(C)C)C(=O)N[C@H](C(=O)N1CCC[C@H]1C(=O)N[C@@H](CCCNC(=N)N)C(=O)N[C@H](C(=O)N[C@@H](CCC(=O)O)C(=O)N[C@@H](CO)C(=O)O)[C@@H](C)O)C(C)C)[C@@H](C)CC)C(C)C)[C@@H](C)CC` [LL37], the “LC99 in 5% human serum” value in data set [3] (E. coli, cfu counting, 5% human serum, LC99 = lowest AMP concentration that kills 99% of the original inoculum, 37 °C) is on record as above 512 mg/L. Besides, the “LC99 in PBS” value in data set [3] (E. coli, cfu counting, PBS pH 7.4, LC99 = lowest AMP concentration that kills 99% of the original inoculum, 37 °C) stood at 16 mg/L.
